According to ChEMBL document CHEMBL1149557, “Induction of GRP78 by valproic acid is dependent upon histone deacetylase inhibition” (2007):
Calls of active or inactive are those of the source. No cut-off for these calls is given here.

Key:
[1] = biological target: Glycogen synthase kinase-3 beta (Homo sapiens) (UniProt P49841); assay: Inhibition of GSK3-beta at 2 mM relative to control
[2] = biological target: T1, Histone deacetylase (Homo sapiens) (UniProt Q13547+O15379+Q9UBN7+Q92769+Q9UQL6+Q8WUI4+Q9BY41+Q96DB2+P56524+Q9UKV0+Q969S8); assay: Inhibition of HDAC in HEK293 cells assessed as increase in histone H4 acetylation at 2 mM after 48 hrs; assay type: cell-based
HEK293 [3] = assay: Increase in GRP78 protein level in HEK293 cells at 2 mM by immunoblot; assay type: functional, cell-based; conditions: Homo sapiens
HEK293 [4] = assay: (§1) Increase in GRP78 protein level in HEK293 cells at 1 mM by immunoblot; assay type: functional, cell-based; conditions: Homo sapiens
[5] = biological target: T1, Histone deacetylase (Homo sapiens); assay: Inhibition of HDAC in HEK293 cells assessed as increase in histone H4 acetylation at 1 mM after 48 hrs relative to control; assay type: cell-based
HEK293 [6] = assay: as §1; assay type: functional, Homo sapiens
HEK293 [7] = assay: Increase in protein disulfide isomerase level in HEK293 cells at 1 mM by immunoblot; assay type: functional, cell-based; conditions: Homo sapiens
HEK293 [8] = assay: Increase in protein disulfide isomerase level in HEK293 cells at 2 mM by immunoblot; assay type: functional, cell-based; conditions: Homo sapiens
HEK293 [9] = assay: Increase in protein disulfide isomerase level in HEK293 cells at 10 ug/ml by immunoblot; assay type: functional, cell-based; conditions: Homo sapiens
HEK293 [10] = assay: Induction of GADD153/CHOP protein level in HEK293 cells by immunoblot; assay type: functional, cell-based; conditions: Homo sapiens
HEK293 [11] = assay: Increase in GRP78 protein level in HEK293 cells at 10 ug/mL by immunoblot; assay type: functional, cell-based; conditions: Homo sapiens
HEK293 [12] = assay: Increase in protein disulfide isomerase level in HEK293 cells at 600 nM by immunoblot; assay type: functional, cell-based; conditions: Homo sapiens
HEK293 [13] = assay: Increase in GRP78 protein level in HEK293 cells at 600 nM by immunoblot; assay type: functional, cell-based; conditions: Homo sapiens

Chain of Glycogen synthase kinase-3 beta (Homo sapiens) (P49841 whole entry, looked up): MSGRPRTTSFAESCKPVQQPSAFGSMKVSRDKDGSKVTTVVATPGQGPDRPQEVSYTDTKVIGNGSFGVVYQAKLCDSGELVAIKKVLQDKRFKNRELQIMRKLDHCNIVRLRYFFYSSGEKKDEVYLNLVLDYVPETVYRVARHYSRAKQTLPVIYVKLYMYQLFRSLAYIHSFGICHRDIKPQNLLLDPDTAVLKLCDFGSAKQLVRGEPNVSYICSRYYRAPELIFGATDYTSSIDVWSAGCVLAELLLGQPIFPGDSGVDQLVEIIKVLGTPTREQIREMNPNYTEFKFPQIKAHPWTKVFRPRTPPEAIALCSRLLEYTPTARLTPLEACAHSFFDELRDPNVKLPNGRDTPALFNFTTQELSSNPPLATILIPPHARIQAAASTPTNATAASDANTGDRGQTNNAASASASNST

CCC(CC)C(=O)O
inhibition [1]: 2.9%
Activity [2]: inactive
Activity (HEK293 [3]): inactive

O=C(O)CCCc1ccccc1
inhibition [1]: 126%
Activity [2]: inactive

CCCC(CCC)C(=O)O [VALPROIC ACID]
Activity (HEK293 [4]): Active
inhibition [1]: 65.2%
Fold change [5]: 3.5
Fold change (HEK293 [6]): 2
Activity (HEK293 [7]): Active

CC/C=C(\CCC)C(=O)O
Activity (HEK293 [8]): Active
inhibition [1]: 91.3%
Activity [2]: Active
Activity (HEK293 [3]): Active

CC(=O)N[C@H]1[C@@H](O[C@@H]2O[C@H](CC(O)[C@H]3O[C@@H](n4ccc(=O)[nH]c4=O)[C@H](O)[C@@H]3O)[C@H](O)[C@H](O)[C@H]2NC(=O)/C=C/CC(C)C)O[C@H](CO)[C@@H](N)[C@@H]1O (some centres undefined)
Activity (HEK293 [9]): Active
Activity (HEK293 [10]): Active
Activity (HEK293 [11]): Active

CC(/C=C/C(=O)NO)=C\[C@@H](C)C(=O)c1ccc(N(C)C)cc1
Activity (HEK293 [12]): Active
Activity (HEK293 [13]): Active
